What was measured:
[1] = tested on: V. cholerae classical strain O395; experiment: Autoagglutination assay of O395 cultures; format: cell-based, Vibrio cholerae
[2] = target: T1, ToxT (Vibrio cholerae serotype O1, UniProt A5F384); format: biochemical; details: for inhibition of ToxT DNA-binding in dose-response EMSA, compared with virstatin: compounds 10, 1, 0.1 μM, virstatin 100, 10, 1, 0.1 μM
T1 construct: made in house; host or cells: E. coli BL21-CodonPlus (DE3)-RIL
T1 sequence (A5F384 1-276): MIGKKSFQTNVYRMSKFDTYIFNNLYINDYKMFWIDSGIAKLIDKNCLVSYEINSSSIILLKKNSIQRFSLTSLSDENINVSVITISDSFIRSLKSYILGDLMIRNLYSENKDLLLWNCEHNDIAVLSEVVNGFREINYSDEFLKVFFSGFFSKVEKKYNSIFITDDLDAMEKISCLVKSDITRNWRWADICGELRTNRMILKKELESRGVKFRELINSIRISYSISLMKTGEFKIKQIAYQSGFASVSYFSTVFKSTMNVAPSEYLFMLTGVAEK

[3] = target: T1, ToxT; experiment: Competition STD NMR with virstatin as indicator; format: binding; details: 20 μM ToxT, 100 μM virstatin; based on KD of virstatin and decrease in STD signal; read-out: calculated Ki
Procedure: (§1) Virstatin was solubilized in DMSO-d6 and compounds 5a and 3b in DMSO, at working stock concentrations of 35.5 mM, 394 mM, and 50.5 mM, respectively. Purified ToxT in protein buffer (20 mM Tris, 1 mM EDTA, 320 mM NaCl, pH 7.5) was used at a final concentration of 20 μM. All samples contained 50 μM 3-(Trimethylsilyl)-1-propanesulfonic acid sodium salt (TSP) as an internal standard and 5% D2O. All NMR experiments were carried out on a Bruker Avance 600 MHz or 700 MHz spectrometer equipped with a TCI cryogenic probe. Samples were stored at 4 °C prior to acquisition.
Virstatin was used as the STD indicator at a concentration of 100 μM. Compounds 5a and 3b were added at concentrations of 20–200 μM. STD spectra were obtained as above, with a saturation time of 3 seconds. The calculation of the competitive inhibition was as follows[60]:
where CI is the concentration of inhibitor with unknown KD (compound 5a or 3b), CL is the concentration of ligand with known KD (virstatin), KD is that of virstatin, and i is the inhibition expressed as a fraction: [drawing 6] .

[4] = tested on: tcpA-lacZ; experiment: β-galactosidase reporter assay of tcpA-lacZ transcriptional fusion; format: cell-based, Vibrio cholerae; details: 5 μM and 0.5 μM
[5] = target: T1, ToxT; experiment: STD NMR determination of KD; format: binding
Procedure: as §1
KD determination followed the protocol outlined by Angulo et al.[57]. For on-resonance spectra, the protein was saturated at 500 Hz or 583.33 Hz for the 600 MHz and 700 MHz NMR spectrometers, respectively, for 1–4 seconds utilizing a train of 50 ms Gaussian pulses. For off-resonance spectra, the sample was irradiated at −2000 Hz. The total relaxation delay was 7 seconds. Data acquisition consisted of 128 scans and 32,768 points. The STD-effect was calculated by measuring the intensity of the virstatin aromatic proton peaks in the on- and off-resonance spectra:
The KD of virstatin was calculated using Michaelis-Menten kinetics. The STD-AF0 was plotted as a function of the ligand concentration to construct the binding (Langmuir) isotherm: […]

SMILES	autoagglutination of O395 cultures ([1]; 50 nM)	autoagglutination of O395 cultures ([1]; 0.5 μM)	inhibition of ToxT DNA-binding in dose-response EMSA, compared with virstatin [2]	also measured
Cc1cccc2c1C(CCC(=O)O)CCC2 (stereo not shown) [5a]	inhibited	completely abolished detectable autoagglutination	inhibited DNA-binding more strongly than virstatin	Ki [3]: 31 µM
Cc1cccc2cccc(CCC(=O)O)c12 [4a]	inhibited	completely abolished detectable autoagglutination	inhibited DNA-binding more strongly than virstatin	–
Cc1cccc2cccc(/C=C/CC(=O)O)c12 [3b]	inhibited	completely abolished detectable autoagglutination	inhibited DNA-binding more strongly than virstatin	Ki [3]: 10 µM
CCCCCC/C=C\CCCCCCCC(=O)O [cis-palmitoleic acid, reference compound]	–	–	–	autoagglutination of O395 cultures ([1]; 0.5 μM and 0.05 μM): no effect; inhibition of tcpA transcription (relative β-galactosidase activity of tcpA-lacZ) [4]: essentially no effect
CCCCCCCC/C=C\CCCCCCCC(=O)O [oleic acid, reference compound]	–	–	–	autoagglutination of O395 cultures ([1]; 0.5 μM and 0.05 μM): no effect; inhibition of tcpA transcription (relative β-galactosidase activity of tcpA-lacZ) [4]: essentially no effect
O=C(O)CCCN1C(=O)c2cccc3cccc(c23)C1=O [virstatin, reference compound]	–	did not	–	Kd ([5]; from STD spectra of aromatic protons Ha,b): 483 ± 109 µM; Kd ([5]; from STD spectra of aromatic protons He,f): 331 ± 65 µM; ToxT binding to tcpA promoter DNA (EMSA) ([2]; 100 μM compound, 0.78 μM ToxT): prevented ToxT from binding DNA
Cc1cccc2cccc(CCCC(=O)O)c12 [4b]	inhibited	completely abolished detectable autoagglutination	inhibited DNA-binding more strongly than virstatin	–

— PMC5362913, “A new class of inhibitors of the AraC family virulence regulator Vibrio cholerae ToxT” (Scientific Reports, 2017)
